Measured values: patent publication US20240058422A1, “GLUCAGON-LIKE PEPTIDE-1 RECEPTOR ANTAGONISTS” (INDIANA UNIVERSITY RESEARCH AND TECHNOLOGY CORPORATION, priority 2022, published 2024)
“Also recorded” adds a separate entry of the source. Starred links: 1 amine or outer side, 2 acyl side, 3 side chain; linkers in the order of their positions; H or OH if unused. Non-standard residues stand in square brackets, D forms with d. Residues, ends and D or L forms follow the SMILES beside them. Groups on a side chain read outwards from the residue. No end group written: not given here. *: point of attachment. miniPEG = miniature polyethylene glycol spacer (mPEG); C18 diacid = O=C(O)CCCCCCCCCCCCCCCCC(=O)*; γGlu = O=C(O)[C@H](CCC(=O)[*:2])N[*:1]; Palmitoyl = CCCCCCCCCCCCCCCC(=O)*; pGlu = O=C1CC[C@@H](C(=O)O)N1

Experiments:
mice [1] = assay: Blood glucose levels in mice subcutaneously injected with GLP-1 antagonist; format: in vivo; details: s.c. 10, 30, 100, 300 nmol/kg, measured at 24, 48, 72 hrs, FIG. 8
Description: over time, where X=C18-diacid and O=Lys(C18-diacid).

GLP-1R [2] = target: T1, GLP-1R (Homo sapiens, UniProt P43220); details: after site-specific acylation of the human-based antagonist; cited from earlier work
Target sequence in this assay (P43220 24-463, species assumed): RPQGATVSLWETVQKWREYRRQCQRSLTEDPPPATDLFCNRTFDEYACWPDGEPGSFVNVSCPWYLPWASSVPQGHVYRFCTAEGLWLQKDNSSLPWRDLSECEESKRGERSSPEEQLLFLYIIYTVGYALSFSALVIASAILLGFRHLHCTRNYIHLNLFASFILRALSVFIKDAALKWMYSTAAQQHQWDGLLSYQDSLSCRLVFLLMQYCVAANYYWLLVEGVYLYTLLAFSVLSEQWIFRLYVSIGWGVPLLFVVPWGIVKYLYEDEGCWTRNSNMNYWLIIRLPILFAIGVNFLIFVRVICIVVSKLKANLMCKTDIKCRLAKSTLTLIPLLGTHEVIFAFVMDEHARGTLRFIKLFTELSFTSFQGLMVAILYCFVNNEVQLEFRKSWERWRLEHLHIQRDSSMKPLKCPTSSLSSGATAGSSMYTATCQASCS

GIP receptor = target: T2, GIP receptor (Homo sapiens, UniProt P48546); details: GLP-1 receptor versus GIP receptor; cited from earlier work
T2 sequence (P48546 22-466): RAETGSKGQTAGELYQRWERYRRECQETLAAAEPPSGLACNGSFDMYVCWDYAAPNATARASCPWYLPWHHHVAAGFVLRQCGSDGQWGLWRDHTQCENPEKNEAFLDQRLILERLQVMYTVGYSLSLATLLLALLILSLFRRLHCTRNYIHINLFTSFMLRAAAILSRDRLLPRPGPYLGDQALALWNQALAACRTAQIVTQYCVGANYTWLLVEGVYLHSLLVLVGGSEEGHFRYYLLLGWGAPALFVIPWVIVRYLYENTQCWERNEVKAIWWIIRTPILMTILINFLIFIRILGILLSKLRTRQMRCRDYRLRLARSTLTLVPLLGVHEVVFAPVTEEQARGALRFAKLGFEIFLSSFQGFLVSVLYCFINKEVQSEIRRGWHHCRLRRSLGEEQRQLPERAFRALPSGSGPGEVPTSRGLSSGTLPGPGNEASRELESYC

GLP-1R [3] = target: T1, GLP-1R; assay: IC50 nM; design: host or cells: HEK 293
Experimental: Table printed on a drawing sheet, Fig. 10
Head of the field: IC50 nM
Where the first naming reader finds the target: description_of_the_figure: as measured in an in vitro assay using GLP-1R over-expressing 293 cells
Target sequence in this assay (P43220 24-463 limits assumed): as the sequence (P43220 24-463, species assumed) above

mice [4] = assay: Glucose tolerance test after subcutaneous GLP-1 antagonist; format: in vivo; details: s.c. antagonist, 4 h later i.p. glucose 1.5 g/kg, FIGS. 2A, 2B
Experimental: FIGS. 2A & 2B present data from a glucose tolerance test wherein mice are subcutaneously administered the GLP-1 antagonist followed four hours later by intraperitoneal administration of glucose (1.5 g glucose per kg body weight).
C57Bl/6 mice were obtained from Jackson Laboratories. Mice were single-or group-housed on a 12:12 h light-dark cycle at 22° C. with free access to food and water. All studies were approved by and performed according to the guidelines of the Institutional Animal Care and Use Committee of the University of Cincinnati.
For the determination of glucose tolerance, mice were subjected to 6 h of fasting and injected intraperitoneally with glucose. Injections consisted of 1.5 g glucose per kg body weight (25% w/v D-glucose (Sigma) in 0.9% w/v saline). Tail blood glucose levels (mg dL-1) were measured using a hand-held glucometer (FreeStyle Freedom Lite) before 0 min and at 15, 30, 60, and 120 min after injection.
Mice received a subcutaneous injection of peptide (in PBS) either 1, 4, 8, 24, 48, 72, or 120 at varying doses before being challenged with an IP injection of dipeptidyl peptidase-IV-protected Ex-4 (0.65 nmol kg-1). A GTT was performed fifteen minutes after the GLP-1 injection. Tail blood glucose values were obtained as described above.

human GLP-1 receptor = human GLP-1 receptor (human, UniProt P43220 24-463); assay: cell-based or functional assay

Question: For “X-DVSSYLEEQAVREFIAWLVRGGPSSGAPPPSO-acid [MBX 1407]”, which glucose blood levels (mice [1]) is on record?
Answer: Its glucose blood levels is “dose dependent response”.

Question: For “DVSSYLEEQAVREFIAWLVKGGPSSGAPPPSK[C16]-OH (DVSSYLEEQAVREFIAWLVKGGPSSGAPPPSK(Palmitoyl)-OH) [SEQ ID NO: 3]”, which “potency as a GLP-1 receptor antagonist” value (GLP-1R [2]) is on record?
Answer: Its value is “increased potency”.

Question: What about the “selectivity relative to the GIP receptor” value (GIP receptor) of the same molecule?
Answer: Its value is 10 fold.

Question: For `CC[C@H](C)[C@H](NC(=O)[C@H](Cc1ccccc1)NC(=O)[C@H](CCC(=O)O)NC(=O)[C@H](CCCNC(=N)N)NC(=O)[C@@H](NC(=O)[C@H](C)NC(=O)[C@H](CCC(N)=O)NC(=O)[C@H](CCC(=O)O)NC(=O)[C@H](CCC(=O)O)NC(=O)[C@H](CC(C)C)NC(=O)[C@H](Cc1ccc(O)cc1)NC(=O)[C@H](CO)NC(=O)[C@H](CO)NC(=O)[C@@H](NC(=O)[C@H](CC(=O)O)NC(=O)CNC(=O)[C@H](CCCCNC(=O)CCCCCCCCCCCCCCCCC(=O)O)NC(=O)[C@@H]1CCC(=O)N1)C(C)C)C(C)C)C(=O)N[C@@H](C)C(=O)N[C@@H](Cc1c[nH]c2ccccc12)C(=O)N[C@@H](CC(C)C)C(=O)N[C@H](C(=O)N[C@@H](CCCNC(=N)N)C(=O)NCC(=O)NCC(=O)N1CCC[C@H]1C(=O)N[C@@H](CO)C(=O)N[C@@H](CO)C(=O)NCC(=O)N[C@@H](C)C(=O)N1CCC[C@H]1C(=O)N1CCC[C@H]1C(=O)N1CCC[C@H]1C(=O)N[C@@H](CO)C(=O)O)C(C)C` [compound 1417] ([pGlu]K(C18 diacid)GDVSSYLEEQAVREFIAWLVRGGPSSGAPPPS-OH), which IC50 (GLP-1R [3]) is on record?
Answer: Its IC50 is 80 nM.

Question: For `CC[C@H](C)[C@H](NC(=O)[C@H](Cc1ccccc1)NC(=O)[C@H](CCC(=O)O)NC(=O)[C@H](CCCNC(=N)N)NC(=O)[C@@H](NC(=O)[C@H](C)NC(=O)[C@H](CCC(N)=O)NC(=O)[C@H](CCC(=O)O)NC(=O)[C@H](CCC(=O)O)NC(=O)[C@H](CC(C)C)NC(=O)[C@H](Cc1ccc(O)cc1)NC(=O)[C@H](CO)NC(=O)[C@H](CO)NC(=O)[C@@H](NC(=O)[C@H](CC(=O)O)NC(=O)CCCCCCCCCCCCCCCCC(=O)O)C(C)C)C(C)C)C(=O)N[C@@H](C)C(=O)N[C@@H](Cc1c[nH]c2ccccc12)C(=O)N[C@@H](CC(C)C)C(=O)N[C@H](C(=O)N[C@@H](CCCNC(=N)N)C(=O)NCC(=O)NCC(=O)N1CCC[C@H]1C(=O)N[C@@H](CO)C(=O)N[C@@H](CO)C(=O)NCC(=O)N[C@@H](C)C(=O)N1CCC[C@H]1C(=O)N1CCC[C@H]1C(=O)N1CCC[C@H]1C(=O)N[C@@H](CO)C(=O)O)C(C)C` [compound 1416] ({C18 diacid}-DVSSYLEEQAVREFIAWLVRGGPSSGAPPPS-OH), which IC50 (GLP-1R [3]) is on record?
Answer: The IC50 was 36 nM.

Question: With “DVSRYLEEQAVREFIEWLVRGGPSSGAPPPSK[miniPEG-γE-C16]-OH (DVSRYLEEQAVREFIEWLVRGGPSSGAPPPSK([miniPEG-γGlu-Palmitoyl])-OH) [SEQ ID NO: 16]” as the molecule, how does the “GLP-1 antagonist activity in glucose tolerance test” value (mice [4]) read?
Answer: The value was “full antagonist; also recorded: much higher potency than the GLP-1 antagonist Ex-9-40”.

Question: Which “IC50 (nM): block of cAMP induction by GLP-1 (0.05 nM), luciferase reporter in HEK 293 cells with human GLP-1 receptor” value (human GLP-1 receptor) does the source give for XGDLSKQMEEEAVRLFIEWLKNGGPSSGAPPPS (dK at position 7 acylated with Peg2-gE(C16); C-terminal amide (-NH2)) [Ex9-39amide, dK7 (PEG2-γE(C16)), G8] here?
Answer: The value was 6.2 nM.
